Data from ChEMBL document CHEMBL4699579, “A Peptidyl Inhibitor that Blocks Calcineurin-NFAT Interaction and Prevents Acute Lung Injury” (J Med Chem, 2020).
The source made the active and inactive calls. The calls are words filed in the database; no cut-off is given here. Positions of bridges follow the written chain, without caps; N, C: chain ends. Non-standard residues stand in square brackets, D forms with d. Residues, ends and D or L forms follow the SMILES beside them. Chains are numbered I, II in the order given. *: point of attachment. 2Nal = N[C@@H](Cc1ccc2ccccc2c1)C(=O)O; Val(3-OH) = CC(C)(O)[C@H](N)C(=O)O; Tle = CC(C)(C)[C@H](N)C(=O)O; X1 = O=C(c1ccnc(Cl)c1Cl)*; AEEA = NCCOCCOCC(=O)O

How the values were obtained:
[1] = Drug distribution in BALB/c mouse muscle at 0.6 mg/kg, iv using compound labelled with cyanine-5 measured after 24 hrs by fluorescence based assay; format: ADME, organism-based, Muscle tissue; settings: in vivo
[2] = Drug distribution in BALB/c mouse lymph nodes at […], ip using compound labelled with cyanine-5 measured after 24 hrs by fluorescence based assay; format: ADME, organism-based, Lymph node; settings: dose 2.4 mg/kg, read-out: Drug uptake
[3] = Stability in mouse liver microsomes assessed as compound degradation at 100 uM incubated up to 60 mins in presence of NADPH by LC-MS/MS analysis; format: ADME, Microsome; settings: 1 h, TDE = time-dependent effect
[4] = Drug distribution in BALB/c mouse Non-T and B lymphocytes at […], ip using compound labelled with cyanine-5 measured after 24 hrs by flow cytometry; format: ADME, organism-based, Lymphocyte; settings: in vivo, dose 2.4 mg/kg
[5] = Plasma concentration in BALB/c mouse at 5 mg/kg, iv after 8 hrs by LC-MS/MS analysis; format: ADME, organism-based
[6] = Stability in simulated intestinal fluid at 5 uM incubated for 2 hrs by LC/MS/MS analysis
[7] = Drug distribution in BALB/c mouse lung at 0.6 mg/kg, iv using compound labelled with cyanine-5 measured after 24 hrs by fluorescence based assay; format: ADME, organism-based; settings: read-out: Drug uptake
[8] = Plasma concentration in BALB/c mouse at 5 mg/kg, iv after 2 to 4 hrs by LC-MS/MS analysis; format: ADME, organism-based; settings: in vivo, time 2-4 hrs
[9] = test system: Mus musculus; assay: Anti-inflammatory activity in BALB/c mouse model of LPS-induced ALI assessed as reduction in LPS-induced TNFalpha in BALF at 0.3 to 3 mg/kg dosed via intranasal instillation pre-treated 2 hrs before LPS stimulation for 6 hrs; format: functional
[10] = Stability in mouse liver microsomes assessed as compound degradation at 100 uM after 1 hr in presence of NADPH by LC-MS/MS analysis; format: ADME, Microsome; settings: read-out: Drug degradation
[11] = Drug distribution in BALB/c mouse kidney at […], sc using compound labelled with cyanine-5 measured after 24 hrs by fluorescence based assay; format: ADME, organism-based; settings: in vivo, dose 2.4 mg/kg
[12] = Drug concentration in BALB/c mouse spleen at 5 mg/kg, iv after 8 hrs by LC-MS/MS analysis; format: ADME, organism-based; settings: read-out: Drug uptake
[13] = Drug concentration in BALB/c mouse brain at 5 mg/kg, iv after 8 hrs by LC-MS/MS analysis; format: ADME, organism-based; settings: in vivo
[14] = test system: HeLa; assay: Toxicity in human HeLa cells assessed as reduction in cell viability up to 25 uM incubated for 72 hrs by MTT assay; format: cell-based
[15] = test system: Mus musculus; assay: Anti-inflammatory activity in BALB/c mouse model of LPS-induced ALI assessed as reduction in LPS-induced lung wet-to-dry ratios at 5 mg/kg, iv pre-treated 4 hrs before LPS stimulation for 16 hrs; format: functional, organism-based; settings: time 20.0 hrs
[16] = Clearance in C57BL/6 mouse assessed as clearance time at 5 mg/kg using TMR-labeled compound instilled into both nostrils by flow cytometry; format: ADME, organism-based; settings: in vivo, inhaled_or_intranasal
[17] = Drug distribution in BALB/c mouse neutrophils at […], sc using compound labelled with cyanine-5 measured after 24 hrs by flow cytometry; format: ADME, organism-based, Neutrophil; settings: in vivo, dose 2.4 mg/kg
[18] = Stability in mouse hepatocytes at 2 uM incubated up to 90 mins by LC/MS/MS analysis; format: ADME, cell-based, Hepatocyte
[19] = Drug distribution in BALB/c mouse lung at […], ip using compound labelled with cyanine-5 measured after 24 hrs by fluorescence based assay; format: ADME, organism-based; settings: dose 2.4 mg/kg, read-out: Drug uptake
[20] = Stability in human HCT-116 cells spheroids assessed as compound degradation at 5 uM incubated for 24 hrs by MALDI-TOF-TOF mass spectrometry; format: ADME, cell-based; settings: hct-116, 24 h
[21] = Drug distribution in BALB/c mouse liver at […], sc using compound labelled with cyanine-5 measured after 24 hrs by fluorescence based assay; format: ADME, organism-based; settings: in vivo, dose 2.4 mg/kg
[22] = test system: Mus musculus; assay: Anti-inflammatory activity in BALB/c mouse model of LPS-induced ALI assessed as reduction in LPS-induced TNFalpha in BALF at 3 mg/kg dosed via intranasal instillation pre-treated 2 hrs before LPS stimulation for 6 hrs and measured at 24 hrs; format: functional, organism-based
[23] = test system: Mus musculus; assay: Anti-inflammatory activity in BALB/c mouse model of LPS-induced ALI assessed as reduction in LPS-induced IL6 level in BALF at 0.3 to 3 mg/kg dosed via intranasal instillation pre-treated 2 hrs before LPS stimulation for 6 hrs; format: functional
[24] = Drug distribution in BALB/c mouse kidney at 0.6 mg/kg, iv using compound labelled with cyanine-5 measured after 24 hrs by fluorescence based assay; format: ADME, organism-based; settings: in vivo
[25] = Drug distribution in BALB/c mouse neutrophils at […], ip using compound labelled with cyanine-5 measured after 24 hrs by flow cytometry; format: ADME, organism-based, Neutrophil; settings: in vivo, dose 2.4 mg/kg
[26] = test system: Mus musculus; assay: Anti-inflammatory activity in BALB/c mouse model of LPS-induced ALI assessed as reduction in LPS-induced BALF protein levels at 3 mg/kg dosed via intranasal instillation pre-treated 2 hrs before LPS stimulation for 6 hrs and measured at 24 hrs; format: functional, organism-based
[27] = test system: Mus musculus; assay: Anti-inflammatory activity in BALB/c mouse model of LPS-induced ALI assessed as effect on LPS-induced TNFalpha in kidney at 5 mg/kg, iv pre-treated 4 hrs before LPS stimulation for 16 hrs; format: functional, organism-based; settings: time 20.0 hrs
[28] = test system: Macrophage; assay: Inhibition of calcineurin-NFATc3 interaction in mouse lung macrophages assessed as reduction in LPS-induced IL6 production at 0.1 to 10 uM pre-incubated 4 hrs before LPS stimulation for 8 hrs by ELISA; format: tissue-based; settings: DISRUPTING AGENT, dose microM 0.1-10, time 12.0 hrs
[29] = test system: Mus musculus; assay: Anti-inflammatory activity in BALB/c mouse model of LPS-induced ALI assessed as reduction in LPS-induced IL6 in BALF at 5 mg/kg, iv pre-treated 4 hrs before LPS stimulation for 16 hrs; format: functional, organism-based; settings: time 20.0 hrs
[30] = Drug distribution in BALB/c mouse pancreas at 0.6 mg/kg, iv using compound labelled with cyanine-5 measured after 24 hrs by fluorescence based assay; format: ADME, organism-based; settings: read-out: Drug uptake
[31] = test system: Macrophage; assay: Inhibition of calcineurin-NFATc3 interaction in mouse lung macrophages assessed as reduction in LPS-induced TNFalpha production at 0.1 to 10 uM pre-incubated 4 hrs before LPS stimulation for 8 hrs by ELISA; format: tissue-based; settings: DISRUPTING AGENT, dose microM 0.1-10, time 12.0 hrs
[32] = Drug distribution in BALB/c mouse spleen at 0.6 mg/kg, iv using compound labelled with cyanine-5 measured after 24 hrs by fluorescence based assay; format: ADME, organism-based; settings: in vivo
[33] = Drug distribution in BALB/c mouse muscle at […], ip using compound labelled with cyanine-5 measured after 24 hrs by fluorescence based assay; format: ADME, organism-based, Muscle tissue; settings: in vivo, dose 2.4 mg/kg
[34] = Drug metabolism in BALB/c mouse spleen at 5 mg/kg, iv after 8 hrs by LC-MS/MS analysis; format: ADME, organism-based; settings: in vivo
[35] = Drug distribution in BALB/c mouse monocytes at […], sc using compound labelled with cyanine-5 measured after 24 hrs by flow cytometry; format: ADME, organism-based, Monocyte; settings: in vivo, dose 2.4 mg/kg
[36] = Drug distribution in BALB/c mouse heart at 0.6 mg/kg, iv using compound labelled with cyanine-5 measured after 24 hrs by fluorescence based assay; format: ADME, organism-based; settings: read-out: Drug uptake
[37] = dose mg/kg 0.3-3, time 8 hrs, read-out: MED

CC[C@H](C)[C@H](NC(=O)[C@@H](NC(=O)c1ccnc(Cl)c1Cl)C(C)(C)C)C(=O)N[C@H](C(=O)N[C@H](C(=O)N[C@H](C(=O)N[C@@H](CCC(N)=O)C(=O)N[C@@H](Cc1c[nH]cn1)C(=O)N[C@H](CC(C)C)C(=O)N[C@@H](CO)C(=O)NCCOCCOCC(=O)N[C@@H](CCCCNC(=O)CC[C@@H]1NC(=O)[C@@H](CCCNC(=N)N)NC(=O)[C@H](CCCNC(=N)N)NC(=O)[C@@H](CCCNC(=N)N)NC(=O)[C@H](CCCNC(=N)N)NC(=O)[C@H](Cc2ccc3ccccc3c2)NC(=O)[C@@H](Cc2ccccc2)NC1=O)C(N)=O)[C@@H](C)O)[C@@H](C)CC)C(C)(C)O (I: X1-[Tle]I[Val(3-OH)]ITQH[dL]S[AEEA]K-NH2 / II: cyclo([2Nal]R[dR]R[dR]E[dF]); amide I:11-II:6)
Drug uptake [1]: Not Active | concentration at 24 h [2]: > 50 nM | Drug degradation [3]: Tde | Drug uptake [4]: Active | concentration at 8 h [5]: 13.5 nM | Stability [6]: Stable | concentration at 24 h [7]: > 50 nM | concentration [8]: < 5 nM | Activity ([9]; dose mg/kg 0.3-3, time 8.0 hrs): Dose-dependent effect | minimal effective dose [9, 37]: 1 mg/kg | metabolised at 1 h, 100 µM [10]: ≤ 25% | Drug uptake [11]: Active | concentration at 8 h [12]: 15 nM | Drug uptake [13]: Not Active | Activity [14]: Non-Toxic | Activity [15]: Active | CL [16]: 16 h | Drug uptake [17]: Active | Stabilty [18]: Stable | concentration at 24 h [19]: > 50 nM | Stabilty [20]: Stable | Drug uptake [21]: Active | Activity [22]: inactive | Activity ([23]; dose mg/kg 0.3-3, time 8.0 hrs): Dose-dependent effect | minimal effective dose [23, 37]: 1 mg/kg | Drug uptake [24]: Active | Drug uptake [25]: Active | Activity [26]: inactive | Activity [27]: inactive | inhibition [28]: Dose-dependent effect | Activity [29]: Active | concentration at 24 h [30]: > 50 nM | inhibition [31]: Dose-dependent effect | Drug uptake [32]: Active | Drug uptake [33]: Not Active | Drug metabolism [34]: Metabolite_Detected | Drug uptake [35]: Active | concentration at 24 h [36]: > 50 nM
